Ends that are not written are not given here.
Biological target: T1, LC3B K30R (Homo sapiens, UniProt Q9GZQ8, K30R)
T1 construct: modified Ub-leader (ubiquitin fusion leader) (N); made in house; host or cells: E. coli NEB T7 Express
Assay: ITC titration of PLEKHM1-LIR peptide into LC3B K30R mutant
Type: binding
Description: The chimeric constructs were expressed as a His‐tag fusion protein in E. coli BL21(DE3) cells. The cells were induced with 0.3 mM IPTG at OD600 0.6 for 16 h at 26°C. The cell pellets were lysed using mechanical sonication in lysis buffer (20 mM Tris–HCl pH 9.0, 100 mM NaCl, 10 mM imidazole, supplemented with 0.1% Triton X‐100). The proteins were purified using Ni‐NTA beads (GE Healthcare) and the His‐tag was cleaved using thrombin (Invitrogen) at room temperature for 16 h. The last step was gel filtration chromatography using a Superdex S200/300 GL column (GE Healthcare). The proteins were concentrated using spin concentrators (Vivaspin). For ITC and NMR studies, the non‐labelled and stable isotopes labelled LC3 and GABARAP proteins were obtained based on the protocols described elsewhere 30, 39. Here, E. coli NEB T7 Express culture transformed with corresponding plasmids were grown till OD600 nm = 1.0 and protein expression was induced with 0.2 mM IPTG. The cultures were incubated at 25°C for 8–12 h before cell harvesting. Isolation and purification procedures were similar to those reported in Ref. 22, 40. Before experiments, all proteins and peptides were equilibrated with a buffer containing 50 mM Na2HPO4, 100 mM NaCl at pH 7.0, and supplied with 5 mM protease inhibitor cocktail.
The protocol for preparation of non‐labelled and ^13C,^15N‐labelled PLEKHM1‐LIR peptide was slightly modified to achieve highest yield of the peptide. The 50 ml M9 culture was inoculated with NEB T7 cell transformed with pET39_Ub63‐PLEKHM1‐LIR plasmid and grown overnight at 37°. The collected cells were resuspended in 2 l of either LB or M9 media contained 1.5 g ^15N‐labelled NH4Cl and 3.0 g of ^13C‐labelled glucose. The cultures were grown at 37° till A(600 nm) = 0.9 and supplied with 1 mM of IPTG to induce Ub63‐PLEKHM1‐LIR overexpression (3 h at 37°). After that cells were harvested by centrifugation, re‐suspended in buffer contained 50 mM Tris–HCl pH = 7.9, 200 mM NaCl, 5% glycerol, 0.1 mg/ml DNase A and 4 mM protease inhibitor cocktail. After cell lysis by French press, debris was removed by centrifugation and clear supernatant was applied onto the column contained Ni‐NTA Sepharose equilibrated with the loading buffer (50 mM Tris–HCl pH = 7.9, 250 mM NaCl, 1% glycerol and 20 mM imidazole). Elution was performed with 400 mM imidazole in the same buffer. An aliquot of pure Ub63‐PLEKHM1‐LIR fractions was further purified by gel filtration on Superdex75 26 × 60 column for control ITC and analytical size exclusion chromatography experiments, remaining fusion protein was processed with the TEV‐protease and PLEKHM1‐LIR peptide was purified to 95% purity by reverse Ni‐NTA chromatography and followed gel filtration on Superdex75 26 × 60 column. Peak maximum of peptide was detected at […] (void volume 115 ml). Pure peptide was concentrated in Amicon concentrators with cut‐off of 3 kDa (> 95% retention).
All titration experiments were performed at 25°C using a VP‐ITC microcalorimeter (Malvern Instruments Ltd, UK). The ITC data were analysed with the ITC‐Origin 7.0 software with a “one‐site” binding model. The peptides at concentrations of 0.4 mM were titrated into 0.020 mM LC3 and GABARAP proteins in 26 steps. The protein and peptide concentrations were calculated from the UV absorption at 280 nm by NanoDrop spectrophotometer (Thermo Fisher Scientific, DE, USA).

## GAMGPQQEDEWVNVQYPD [PLEKHM1‐LIR WT]
25°C, pH 7.0, LC3B K30R
  -T*DS: -4.52 kJ/mol
  DG (ΔG): -30.1 kJ/mol
  DH (ΔH): -25.5 ± 0.84 kJ/mol
  DS (ΔS): +3.61 cal mol-1 K-1
  KA: 0.19±0.01 *10^6 M-1
  N: 1.11±0.02
Within experimental error
  increase in favorable binding enthalpy vs wild type LC3B: 1.3 kJ/mol

From article PMC5538626, “Structural and functional analysis of the GABARAP interaction motif (GIM)” (EMBO Reports, 2017)
